According to patent publication US4169944A, “Cholesterol biosynthesis inhibitors” (University Patents, Inc., priority 1977, dated 1979):
Where “and” joins values, the source holds several entries; their conditions need not be identical. Equal values may be shown once. Read-outs that look alike come from different tables or passages of the source.

Key:
[1] = target: T1, HMG-CoA reductase (Rattus norvegicus, UniProt P51639); test: HMG-CoA reductase activity in crude soluble extract of rat liver microsomes; type: biochemical; details: for HMG-CoA reductase activity: 1.98 without inhibitor
T1 construct: from tissue; host or cells: rat liver microsomes, crude soluble extract
T1 sequence (P51639 1-887): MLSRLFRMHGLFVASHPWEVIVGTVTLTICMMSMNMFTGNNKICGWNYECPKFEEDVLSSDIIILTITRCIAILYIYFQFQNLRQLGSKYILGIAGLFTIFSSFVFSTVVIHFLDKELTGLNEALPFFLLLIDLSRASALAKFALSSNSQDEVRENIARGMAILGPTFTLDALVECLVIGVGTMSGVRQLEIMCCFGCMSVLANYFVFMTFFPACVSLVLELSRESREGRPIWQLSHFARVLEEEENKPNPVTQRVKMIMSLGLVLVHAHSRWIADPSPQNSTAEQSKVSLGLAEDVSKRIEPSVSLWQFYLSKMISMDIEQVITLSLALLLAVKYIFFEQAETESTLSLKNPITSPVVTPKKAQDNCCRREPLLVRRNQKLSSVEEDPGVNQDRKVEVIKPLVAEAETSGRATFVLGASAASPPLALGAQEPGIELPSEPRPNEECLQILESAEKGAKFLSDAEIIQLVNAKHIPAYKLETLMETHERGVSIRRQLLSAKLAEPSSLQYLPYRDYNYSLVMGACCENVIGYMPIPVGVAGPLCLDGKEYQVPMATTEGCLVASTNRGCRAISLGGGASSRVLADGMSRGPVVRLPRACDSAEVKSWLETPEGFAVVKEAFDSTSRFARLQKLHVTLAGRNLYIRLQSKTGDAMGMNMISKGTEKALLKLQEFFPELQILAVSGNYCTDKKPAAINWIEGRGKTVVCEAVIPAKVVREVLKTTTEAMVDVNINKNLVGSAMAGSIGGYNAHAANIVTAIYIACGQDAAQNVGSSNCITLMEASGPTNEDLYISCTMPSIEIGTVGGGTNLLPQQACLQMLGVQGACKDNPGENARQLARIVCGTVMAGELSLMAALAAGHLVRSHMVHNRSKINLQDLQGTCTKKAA
Protocol: Crude soluble extract from rat liver microsomes was prepared as previously described (2). HMG-CoA reductase activity and incubation conditions were conducted as previously described (2,3).
The relative potencies, as HMG-CoA reductase inhibitors, of trifluoro-HMG-CoA, trifluoro-HMG and trifluoro-HMG anhydride were investigated.
The inhibition of HMG-CoA reductase activity was measured in crude soluble extract from rat liver microsomes. Crude soluble extract from rat liver microsomes was prepared as previously described (2). HMG-CoA reductase activity and incubation conditions were conducted as previously described (2,3). The HMG-CoA reductase activity of the crude soluble extract in the absence of inhibitor was considered as 100% and activities measured in the presence of inhibitors were compared to this norm.

[2] = target: T1, HMG-CoA reductase; test: Inhibition of purified HMG-CoA reductase; type: biochemical; details: 1.1 mM, purified enzyme
Protocol: Hmg-coA reductase was purified from rat liver microsomes as previously described (2). HMG-CoA reductase activity assay and incubation conditions were conducted as previously described (2,3).

[3] = target: T2, rat liver microsomal HMG-CoA reductase (Rattus norvegicus, UniProt P51639); test: Kinetics of inhibition of rat liver microsomal HMG-CoA reductase; type: biochemical
T2 construct: rat liver microsomal HMG-CoA reductase; from tissue; host or cells: rat liver microsomes
T2 sequence (P51639 1-887): T1 sequence (P51639 1-887)
Protocol: Table III summarizes the results of an experiment in which the kinetics of inhibition of rat liver microsomal HMG-CoA reductase by trifluoro-HMG-CoA were measured.
The velocity of mevalonate formation was first measured in the absence of trifluoro-HMG-CoA, varying the concentration of the substrate [3-^14 C]HMG-CoA. Then the same experiment was conducted in the presence of trifluoro-HMG-CoA (600 μM). The data were analyzed by means of an Eadie-Hofstee plot.

[4] = test system: incorporation of [1-^14 C] acetate into cholesterol (nonsaponifiable extract) in intact rat liver cells; test: Incorporation of [1-^14 C] acetate into cholesterol (nonsaponifiable extract) in intact liver cells; type: cell-based
Protocol: Duplicate samples contained 3.7 ml of hepatocyte suspension and 0.28 ml of saturated KHCO3 (pH […]) which contained varying final concentrations (0, 0.01, 0.10 or 1.0 mM) of trifluoro-HMG-CoA. Preincubation was conducted for 60 minutes. 10 μCi of [1-^14 C] sodium acetate, dissolved in Krebs Ringer bicarbonate buffer, was then added to each sample. Incubation was conducted for 120 minutes in a Dubnoff shaker. Saponification and extraction were conducted as previously described (4).

[5] = target: T1, HMG-CoA reductase; test: Liver microsomal HMG-CoA reductase activity in rats treated with trifluoro-HMG-CoA; type: in vivo; details: 0.2 mg per intraperitoneal injection, 6 days
Protocol: (§1) Control rats received an injection of the vehicle (KHCO3 buffer) used for trifluoro-HMG-CoAinjection. Liver microsomes were isolated from these animals, and HMG-CoA reductase activity was measured. The control group average HMG-CoA reductase specific activity was 1.25 nmol mevalonate formed/min/mg protein. […] This difference was statistically significant at the p=0.005 level.
(§2) Twelve male rats of identical age were used. Six rats served as the control group; these rats received an intraperitoneal injection of KHCO3 buffer (0.2 ml) once per day (3:00 pm) for six days, except on the final day when additional injections were given at 10:00 pm and 6:00 am the following day. The drug-treated group of six rats received intraperitoneal injections of trifluoro-HMG-CoA (0.2 mg) in KHCO3 buffer (0.2 ml) on the same schedule as described above for the control group. The data were further analyzed by the t statistic between the mean for each group.

[6] = Total body weights and liver weights of treated and control rats; type: in vivo, rat; details: 0.2 mg per intraperitoneal injection, 6 days
Protocol: as §1, §2

[7] = substrate: CC(O)(CC(=O)O)CC(=O)SCCNC(=O)CCNC(=O)[C@H](O)C(C)(C)COP(=O)(O)OP(=O)(O)OC[C@H]1O[C@@H](n2cnc3c(N)ncnc32)[C@H](O)[C@@H]1OP(=O)(O)O; test: cells, lysate or membranes named; details: other: absence of trifluoro-HMG-CoA; Eadie-Hofstee plot
[8] = 1 mM, crude soluble extract, relative potencies (Table VI), read-out: Inhibition of HMG-CoA reductase activity

Question: Which inhibition at 1000 µM [1, 8] does the source give for O=C(O)CC(O)(CC(=O)O)C(F)(F)F [Trifluoro-HMG, 3-Hydroxy-3-Trifluoromethylglutaric Acid] here?
Answer: Its inhibition at 1000 µM is 11%.

Question: Which inhibition at 10 µM ([1]; 0.01 mM, crude soluble extract) does the source give for CC(C)(COP(=O)(O)OP(=O)(O)OC[C@H]1O[C@@H](n2cnc3c(N)ncnc32)[C@H](O)[C@@H]1OP(=O)(O)O)[C@@H](O)C(=O)NCCC(=O)NCCSC(=O)CC(O)(CC(=O)O)C(F)(F)F (stereo partly drawn) [Trifluoro-HMG-CoA, 3-Hydroxy-3-Trifluoromethylglutaryl-Coenzyme A] here?
Answer: The inhibition at 10 µM was 7%.

Question: What about the HMG-CoA reductase activity ([1]; 0.01 mM, crude soluble extract) of the same molecule?
Answer: Its HMG-CoA reductase activity is 1.85 nmol mevalonate formed/min/ml.

Question: And the inhibition at 100 µM ([1]; 0.10 mM, crude soluble extract)?
Answer: The inhibition at 100 µM was 35%.

Question: And the HMG-CoA reductase activity ([1]; 0.10 mM, crude soluble extract)?
Answer: The HMG-CoA reductase activity was 1.29 nmol mevalonate formed/min/ml.

Question: What about the “Relative potency versus the free acid [3-hydroxy-3-trifluoromethylglutaric acid]” value ([1]; 1 mM, crude soluble extract) of the same molecule?
Answer: Its value is “substantially more potent inhibitor than the free acid”.

Question: And the inhibition at 1000 µM ([1]; 1.00 mM, crude soluble extract (Table I), read-out: Inhibition)?
Answer: The inhibition at 1000 µM was 78%.

Question: And the HMG-CoA reductase activity ([1]; 1.00 mM, crude soluble extract)?
Answer: The HMG-CoA reductase activity was 0.44 nmol mevalonate formed/min/ml.

Question: What about the inhibition at 1000 µM [1, 8] of the same molecule?
Answer: The inhibition at 1000 µM was 78%.

Question: And the “Inhibition (in words)” value ([1]; 0.1 and 1.0 mM, crude soluble extract)?
Answer: The value was “significant inhibition”.

Question: What about the inhibition at 1100 µM [2] of the same molecule?
Answer: The inhibition at 1100 µM was 73%.

Question: What about the “HMG-CoA reductase specific activity” value ([2]; 931.9 without inhibitor) of the same molecule?
Answer: Its value is 253.5 nmol mevalonate formed/min/mg.

Question: And the Ki ([3]; rat liver microsomes, substrate HMG-CoA, Eadie-Hofstee plot)?
Answer: Its Ki is 54 µM.

Question: What about the Inhibition type ([3]; versus natural substrate HMG-CoA) of the same molecule?
Answer: Its Inhibition type is “competitive inhibitor”.

Question: What about the inhibition at 10 µM ([4]; Rattus norvegicus, 0.01 mM, preincubation 60 minutes, incubation 120 minutes) of the same molecule?
Answer: Its inhibition at 10 µM is 34%.

Question: What about the inhibition at 100 µM ([4]; Rattus norvegicus, 0.10 mM, preincubation 60 minutes, incubation 120 minutes) of the same molecule?
Answer: Its inhibition at 100 µM is 67%.

Question: What about the inhibition at 1000 µM ([4]; Rattus norvegicus, 1.00 mM, preincubation 60 minutes, incubation 120 minutes) of the same molecule?
Answer: Its inhibition at 1000 µM is 88%.

Question: What about the IC50 ([4]; Rattus norvegicus, calculated from the Table IV experiment, intact liver cells, read-out: Concentration for 50% inhibition of cholesterol formation) of the same molecule?
Answer: The IC50 was ~40 µM.

Question: And the “Inhibition of cholesterol formation (in words)” value ([4]; concentrations as low as 0.01 mM)?
Answer: Its value is “significant inhibition of cholesterol formation”.

Question: What about the “HMG-CoA reductase specific activity, average of treated rats” value ([5]; average of six rats, control average 1.25, p=0.005) of the same molecule?
Answer: The value was 0.63 nmol mevalonate formed/min/mg protein.

Question: What about the “HMG-CoA reductase specific activity, individual treated rats” value ([5]; individual rat) of the same molecule?
Answer: Its value is 0.42 nmol mevalonate formed/min/mg protein and 0.59 nmol mevalonate formed/min/mg protein and 0.83 nmol mevalonate formed/min/mg protein and 0.58 nmol mevalonate formed/min/mg protein and 0.95 nmol mevalonate formed/min/mg protein and 0.40 nmol mevalonate formed/min/mg protein.

Question: What about the “Total body weights and liver weights, treated versus control group” value [6] of the same molecule?
Answer: The value was “not significantly different”.

Question: For O=C1CC(O)(C(F)(F)F)CC(=O)O1 [Trifluoro-HMG-anhydride, 3-Hydroxy-3-Trifluoromethylglutaric Anhydride], which inhibition at 1000 µM [1, 8] is on record?
Answer: The inhibition at 1000 µM was 27%.

B1: rat liver microsomal HMG-CoA reductase (Rattus norvegicus) (protein)
chain: T1 sequence (P51639 1-887)
Question: For B1, which Km [7] is on record?
Answer: The Km was 34.5 µM.
